# Source: patent US20230028403A1, “METHOD WHICH BRINGS BENEFITS TO HEALTH AND/OR GROWTH OF USEFUL PLANTS” (ISHIHARA SANGYO KAISHA, LTD., priority 2019, published 2023)
# Assays:
# Assay type in all cases: in vivo
# [1] = test system: field corn (variety: PIONEERDENT 30N34); assay: Test Example 4: above-ground height of field corn, pot, 300 L/ha; conditions: dose 120 g/ha; (c) polyoxyethylene hydrogenated castor oil 0.08 w/v %; 14th day
# Method: Upland field soil was put into a […] hectare pot, and seeds of field corn (variety: PIONEERDENT 30N34, variety highly susceptible to component (a)) were sown. When the field corn reached 3.5 to 4.0 leaf stage, an oil-based suspension containing the component (a) and the component (c) (polyoxyethylene hydrogenated castor oil), and a wettable powder containing the component (b) were diluted with water in an amount corresponding to 300 L/ha to prepare spray solutions. The concentration of the component (c) in the spray solution was 0.08 weight/volume percent. The spray solutions were applied to foliage with a small sprayer. On the 14th day after the foliar application, the above-ground height of the field corn was measured, and the height ratio was calculated in accordance with the following formula. The above-ground height in the untreated plot was 75.8 cm.
# (§1) Height ratio (%)=(above-ground height in the treated plot)/(above-ground height in the untreated plot)×100
# [2] = test system: field corn (variety: PIONEERDENT 30N34); assay: Test Example 5: above-ground height of field corn, agricultural field, 300 L/ha; conditions: dose 30 g/ha; (c) polyoxyethylene hydrogenated castor oil 0.020 w/v %; 14th day
# Method: In an agricultural field having seeds of field corn (variety: PIONEERDENT 30N34, variety highly susceptible to component (a)) sown, when the field corn reached 3.1 to 3.5 leaf stage, an oil-based suspension containing the component (a) and the component (c) (polyoxyethylene hydrogenated castor oil), and a wettable powder containing the component (b) were diluted with water in an amount corresponding to 300 L/ha to prepare spray solutions, which were applied to foliage with a Teejet 80015VS nozzle. The concentration of the component (c) in the spray solution was 0.020 weight/volume percent. On the 14th day after the foliar application, the above-ground height of the field corn was measured, and the height ratio was calculated in accordance with the following formula. The above-ground height in the untreated plot was 76.7 cm.
# Height ratio (%) =(above-ground height in the treated plot)/(above-ground height in the untreated plot)×100
# [3] = test system: field corn (variety: SNOWDENT SH2933); assay: Test Example 6: above-ground height of field corn, pot, 300 L/ha; conditions: dose 30 g/ha; (c) sodium polyoxyethylene alkyl ether phosphate 0.033 w/v %; 14th day
# Method: On the 14th day after the foliar application, the above-ground height of the field corn was measured, and the height ratio was calculated in accordance with the following formula.
# Height ratio (%)=(above-ground height in the treated plot)/(above-ground height in the untreated plot) ×100
# [4] = test system: field corn (variety: SNOWDENT SH2933); assay: Test Example 7: above-ground height of field corn, agricultural field, 200 L/ha; conditions: 27th day
# Method: On the 27th day after the foliar application, the above-ground height of the field corn was measured, and the height ratio was calculated in accordance with the following formula.
# as §1
# [5] = test system: field corn (variety: SNOWDENT SH2933); assay: Test Example 8: above-ground height of field corn, agricultural field, 500 L/ha; conditions: 28th day
# Method: On the 28th day after the foliar application , the above-ground height of the field corn was measured, and the height ratio was calculated in accordance with the following formula.
# as §1
# [6] = dose 20 g/ha, (c) polyoxyethylene hydrogenated castor oil 0.02 w/v %
# [7] = dose 30 g/ha, (c) polyoxyethylene hydrogenated castor oil 0.03 w/v %
# [8] = dose 40 g/ha, (c) polyoxyethylene hydrogenated castor oil 0.04 w/v %
# [9] = dose 60 g/ha, (c) polyoxyethylene hydrogenated castor oil 0.06 w/v %
# [10] = dose 80 g/ha, (c) polyoxyethylene hydrogenated castor oil 0.08 w/v %
# [11] = dose 120 g/ha, (c) polyoxyethylene hydrogenated castor oil 0.12 w/v %
# [12] = dose 60 g/ha, (c) sodium polyoxyethylene alkyl ether phosphate 0.04 w/v %
# [13] = dose 90 g/ha, (c) sodium polyoxyethylene alkyl ether phosphate 0.06 w/v %
# [14] = dose 120 g/ha, (c) sodium polyoxyethylene alkyl ether phosphate 0.08 w/v %
smiles,measurement,setting,value
"COc1cc(OC)nc(NC(=O)NS(=O)(=O)c2ncccc2C(=O)N(C)C)n1 [Component (a), nicosulfuron]",Above-ground height,[1],41.3 cm
same,Height ratio,[1],55%
same,Above-ground height,[2],66.6 cm
same,Height ratio,[2],87%
same,Above-ground height,[3],46.8 cm
same,Height ratio,[3],75%
same,Above-ground height,[4]; [6],125.5 cm
same,Height ratio,[4]; [6],86%
same,Above-ground height,[4]; [7],124.0 cm
same,Height ratio,[4]; [7],84%
same,Above-ground height,[4]; [8],129.9 cm
same,Height ratio,[4]; [8],88%
same,Above-ground height,[4]; [9],122.3 cm
same,Height ratio,[4]; [9],83%
same,Above-ground height,[4]; [10],110.7 cm
same,Height ratio,[4]; [10],75%
same,Above-ground height,[4]; [11],107.4 cm
same,Height ratio,[4]; [11],73%
same,Above-ground height,[5]; [12],107.2 cm
same,Height ratio,[5]; [12],81%
same,Above-ground height,[5]; [13],88.6 cm
same,Height ratio,[5]; [13],67%
same,Above-ground height,[5]; [14],86.3 cm
same,Height ratio,[5]; [14],65%
